Square brackets hold non-standard residues; d marks the D form. Peptide text beside a SMILES is read from it. Oic = O=C(O)[C@@H]1C[C@@H]2CCCC[C@@H]2N1; d2Nal = N[C@H](Cc1ccc2ccccc2c1)C(=O)O; αMeF = C[C@](N)(Cc1ccccc1)C(=O)O; Orn = NCCC[C@H](N)C(=O)O Where only a bound is given, the exact number is not on record here.

One series deals with T1, BKB2 receptor (Oryctolagus cuniculus, UniProt Q28642).
T1 construct: The rabbit jugular vein (a pure BKB2 receptor system); from tissue; host or cells: isolated rabbit jugular vein (rbJV)
T1 sequence (Q28642 1-367): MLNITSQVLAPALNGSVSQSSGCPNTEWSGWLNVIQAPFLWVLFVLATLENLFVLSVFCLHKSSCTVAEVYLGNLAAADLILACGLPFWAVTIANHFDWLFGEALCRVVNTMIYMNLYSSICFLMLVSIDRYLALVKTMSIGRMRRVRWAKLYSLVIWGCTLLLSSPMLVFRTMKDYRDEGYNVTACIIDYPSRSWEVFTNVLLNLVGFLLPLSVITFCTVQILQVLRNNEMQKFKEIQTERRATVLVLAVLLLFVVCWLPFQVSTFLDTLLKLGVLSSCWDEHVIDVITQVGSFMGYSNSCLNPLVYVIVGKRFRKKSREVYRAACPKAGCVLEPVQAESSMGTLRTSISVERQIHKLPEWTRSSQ
As to the kind of experiment: Isolated rabbit jugular vein (rbJV) organ bath, antagonist potency pA2. Particulars: BK as agonist, read-out: Antagonist potencies (pA2) BKB2-R rbJV (converted). Type of series: cell-based. As to the method: Selected antagonists were tested for activities in three isolated organs: (1) the rabbit aorta (rbA), (2) the human umbilical vein (hUV) and (3) the rabbit jugular vein (rbJV).
All details regarding the procurements of human umbilical cords and rabbit vessels as well as, the procedures for preparing the isolated organs and the experimental protocols are described in these respective publications: rbA (Rioux et al. 1973, Can J Physiol Pharmacol 51, 114–121); hUV (Gobeil et al. 1996, Br J Pharmacol 118, 289–294), and rbJV (Gaudreau et al. 1981, Can J Physiol Pharmacol 59, 371–379).
The rabbit jugular vein (a pure BKB2 receptor system) was used to exclude any action of the new compounds on the BKB2 receptor and thus establish their selectivity. All tissues were treated with captopril (1 μM) to prevent the degradation of the peptidic agonists.
Repeated applications of a single and double concentration of BK (on rbJV,) or of desArg^9BK (rbA and hUV) were made in the absence and in presence of the various peptides to evaluate their apparent affinities as antagonists, in terms of pA2 (-log10 of the molar concentration of antagonist that reduces the effect of a double concentration of agonist to that of a single one) (Schild 1947, Br J Pharmacol 2, 189–206).

Series [1] has as its target T2, angiotensin converting enzyme (ACE) (Oryctolagus cuniculus, UniProt P12822).
T2 construct: In Vitro Biochemical Stability Assays Against Purified Native Enzymes; purchased Sigma, St. Louis, Mo; host or cells: rabbit lung
T2 sequence (P12822 34-1310): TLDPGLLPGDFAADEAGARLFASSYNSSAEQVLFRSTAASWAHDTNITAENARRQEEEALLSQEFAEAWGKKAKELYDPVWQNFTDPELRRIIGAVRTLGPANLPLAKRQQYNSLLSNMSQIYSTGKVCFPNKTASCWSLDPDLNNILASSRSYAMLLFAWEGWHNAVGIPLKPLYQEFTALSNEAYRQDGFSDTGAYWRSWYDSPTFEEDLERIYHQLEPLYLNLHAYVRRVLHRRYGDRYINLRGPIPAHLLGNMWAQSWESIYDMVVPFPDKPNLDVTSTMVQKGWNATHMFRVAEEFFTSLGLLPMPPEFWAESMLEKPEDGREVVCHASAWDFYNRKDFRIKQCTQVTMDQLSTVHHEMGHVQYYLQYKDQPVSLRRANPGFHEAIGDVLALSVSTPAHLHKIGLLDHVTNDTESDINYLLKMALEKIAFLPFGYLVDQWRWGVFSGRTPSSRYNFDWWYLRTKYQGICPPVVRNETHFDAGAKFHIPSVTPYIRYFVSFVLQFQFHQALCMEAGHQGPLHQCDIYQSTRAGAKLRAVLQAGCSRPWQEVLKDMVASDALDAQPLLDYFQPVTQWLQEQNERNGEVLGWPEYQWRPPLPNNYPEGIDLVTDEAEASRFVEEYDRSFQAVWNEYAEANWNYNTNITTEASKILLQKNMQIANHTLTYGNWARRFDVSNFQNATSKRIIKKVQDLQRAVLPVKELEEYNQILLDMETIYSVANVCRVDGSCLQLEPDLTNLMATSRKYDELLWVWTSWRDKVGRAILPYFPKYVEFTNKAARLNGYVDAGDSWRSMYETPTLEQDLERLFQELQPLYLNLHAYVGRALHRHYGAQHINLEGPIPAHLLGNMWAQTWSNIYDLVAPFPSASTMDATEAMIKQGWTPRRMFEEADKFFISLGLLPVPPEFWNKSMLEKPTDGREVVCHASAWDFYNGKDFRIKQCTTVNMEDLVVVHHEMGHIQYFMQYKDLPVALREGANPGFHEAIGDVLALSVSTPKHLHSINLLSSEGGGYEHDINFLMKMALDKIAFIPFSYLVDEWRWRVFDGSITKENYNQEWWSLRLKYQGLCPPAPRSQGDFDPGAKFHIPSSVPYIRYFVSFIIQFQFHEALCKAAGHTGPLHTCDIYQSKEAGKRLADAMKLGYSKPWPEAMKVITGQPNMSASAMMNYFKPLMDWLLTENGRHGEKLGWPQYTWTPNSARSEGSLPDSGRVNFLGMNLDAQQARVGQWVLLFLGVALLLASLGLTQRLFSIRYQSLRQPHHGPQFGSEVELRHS
Put plainly: In vitro metabolic stability against purified rabbit lung ACE. The series is classed as in vitro ADME. Particulars: purified angiotensin converting enzyme from rabbit lung, pH 7.5, peptide 200 μM, 60 min at 37° C., mean ± SEM of 3, read-out: Peptide metabolism (%) Rabbit lung ACE. The procedure:
These assays were performed using three enzyme preparations: purified angiotensin converting enzyme (ACE; from rabbit lung), human plasma as a, source of aminopeptidase M (AmM) and human platelets as a source of aminopeptidase P (AmP).
Purified ACE from rabbit lungs (Sigma, St. Louis, Mo.) was dissolved in PBS (50 mM, pH 7.5, containing 300 mM NaCl and 10 μM ZnCl2; the final concentration of ACE was 45 μg/ml). Each of the peptide antagonists (200 μM) was incubated for 60 min at 37° C. with ACE (8.5 μl) (total volume medium, 187.5 μl). The enzymatic reaction was then terminated by boiling.
The experimental protocol for the measurement of ACE activity has been described elsewhere (Drapeau et a). 1993, J Pharmacol Exp Ther 266, 192–198; Gobeil et al., 1996, supra).

With `CC[C@H](C)[C@H](NC(=O)[C@@H](Cc1ccc2ccccc2c1)NC(=O)[C@H](CO)NC(=O)[C@](C)(Cc1ccccc1)NC(=O)CNC(=O)[C@@H]1CCCN1C(=O)[C@@H]1C[C@@H]2CCCC[C@@H]2N1C(=O)[C@H](CCCNC(=N)N)NC(=O)[C@H](CCCN)NC(C)=O)C(=O)O` [compound c, Ac-Orn[Oic^2,(α-Me)Phe^5,D-βNal^7,Ile^8]desArg^9BK] (Ac-[Orn]R[Oic]PG[αMeF]S[d2Nal]I-OH), at BKB2 receptor, the Kb was more than 1000 nM. The metabolised at 1 h, 200 µM in series [1] was 0%.
On to `CC[C@H](C)[C@H](NC(=O)[C@@H](Cc1ccc2ccccc2c1)NC(=O)[C@H](CO)NC(=O)[C@](C)(Cc1ccccc1)NC(=O)CNC(=O)[C@@H]1CCCN1C(=O)[C@@H]1C[C@@H]2CCCC[C@@H]2N1C(=O)[C@H](CCCNC(=N)N)NC(=O)[C@H](CCCCN)NC(C)=O)C(=O)O` [Ac-Lys[Oic^2,(α-Me)Phe^5,D-βNal^7,Ile^8]desArg^9BK] (Ac-KR[Oic]PG[αMeF]S[d2Nal]I-OH), for which the Kb at BKB2 receptor was more than 1000 nM. The metabolised at 1 h, 200 µM in series [1] turned out to be 0%.

Source of the values: patent publication US7211566B2 (Universite De Sherbrooke, priority 2003, dated 2007).
